Tests used:
[1] = Toxicity in mice, median lethal dose by intraperitoneal injection; type: in vivo, mouse
Procedure: The doses of compounds of the invention found to be lethal to 50% of the mice (LD50) were determined by intraperitoneal injection of groups of five animals with increasing doses of each compound. CNI-0294 was administered from 0, 2, 10, 20, 40, 80, 160, 320, 640, 1280 mg/kg in 0.5 ml of water/HCl; CNI-1594 at 0, 2.4, 5, 10, 20, 40, 80 mg/kg in 0.5 ml of water/HCl; CNI-1794 at 0, 20, 50, 80 mg/kg in 0.5 ml of water/HCl; and CNI-1894 at 0, 10, 20, 40, 80, 240, 480, 960 mg/kg in water/HCl. […] The percentage of animals in each group which died were utilized to calculate the LD50 by non-linear curve fitting with the Enzfit software (Elsevier Bioscience; Cambridge, UK) programmed with the Chou equation (Chou 1976, J Theor Biol 39:253-276)).

HIV-1ADA = assay: Anti-HIV activity in primary human monocytes, day 9 (Table IX, FIG. 12C); type: cell-based; settings: Human immunodeficiency virus 1, Monocyte, 216 h
[2] = target: T1, recombinant RT (p51/p66 heterodimer) (Human immunodeficiency virus type 1 group M subtype B, UniProt P04585); assay: Binding of [14C]-CNI-H0294 to recombinant RT in solution (immunoprecipitation); parameters: species or system HIV-1; settings: 20 nmol [14C]-CNI-H0294 with 0.28 nmol RT
T1 construct: recombinant MA or RT (a p51/p66 heterodimer)
Procedure: Twenty nmol of [^14C]-CNI-HO294 were mixed with 0.28 nmol of recombinant MA or RT (a p51/p66 heterodimer) in 40 μl of binding buffer. Samples were incubated for 2 h at 37° C. in the presence or absence of 200 nmol of unlabeled CNI-H0294. MA and RT proteins were immunoprecipitated using protein G agarose and sheep polyclonal anti-MA (αMA) or rabbit anti-RT (αRT) sera, respectively. Pre-immune sera (PI) was used as control. Bound material was eluted from protein G using 0.1 M glycine buffer [pH 2.8] and the radioactivity in the eluate was quantified in a scintillation counter.
Recombinant RT (0.2 μM) was incubated with 3.3 μM of [^14C ]-labeled CNI-H0294 and increasing concentrations of unlabeled (cold) CNI-3094. The amount of [^14C]-CNI-H0294 that bound to RT was measured as in FIG. 11.
0.28 nanomoles of recombinant MA or RT [p66/p51 ] dimer were mixed with 20 nmol of [^14C] CNI-HO294 (specific activity 5×10^4 cpm/nmol) and incubated 2 hr at room temperature in 40 μl of binding buffer (PBS supplemented with 1% BSA, 0.1% Tween 20, 1 μg/ml leupeptin, 1 μg/ml aprotinin, 1 mM PMSF). Sheep anti-MA or rabbit anti-RT sera (both obtained from NIH AIDS Research and Reference Reagent Program) or pre-immune control sera were then added (at 1:100 dilution) and incubation continued for another 1 hr at room temperature. Immune complexes were precipitated with protein G-agarose, washed, and then eluted with 0.1 M glycine, pH 2.8. Radioactivity of the eluate was measured in a scintillation counter.

[3] = tested on: BSA with conjugated NLS peptides that mimic the NLS of SV40 large T antigen; assay: Nuclear import of BSA with conjugated NLS peptides of SV40 large T antigen
[4] = target: T2, karyopherin α / purified recombinant MA (Human immunodeficiency virus type 1 group M subtype B, UniProt P04591); assay: Binding of karyopherin α to purified recombinant MA; type: biochemical, HIV-1
T2 construct: or to purified recombinant MA

HIV-1 [5] = assay: Reverse transcription of HIV-1 in infected cells; type: cell-based
HIV-1 [6] = assay: AZT and Compound No. 2 in combination, HIV-1 infected monocyte cultures, RT activity; type: cell-based; settings: for reverse transcriptase activity in supernatant: 100 nM Compound No. 2, AZT 0
Procedure: Primary human monocytes were obtained from peripheral blood by Ficoll-Hypaque centrifugation and adherence to plastic as described previously. Gartner S. P., et al., 1986, Science 233:215. Briefly, after Ficoll-Hypaque (Pharmacia) separation, PBMCs were washed 4 times with DMEM (the last wash was done at 800 rpm to remove platelets) and resuspended in monocyte culture medium [DMEM supplemented with 1 mM glutamine, 10% heat-inactivated human serum, 1% penicillin+streptomycin mixture (Sigma)] at a density of 6×10^6 cells/ml. Cells were seeded in 24-well plates (1 ml per well) and incubated for 2 h at 37° C, 5% CO2. Following incubation, cells were washed 3 times with DMEM to remove non-adherent cells and incubation was continued in monocyte culture medium supplemented with 250 U/ml human M-CSF (Sigma). Cells were allowed to mature for 7 days prior to infection with the monocyte-tropic strain, HIV-1ADA. Nuovo, G. J., et al., 1992, Diagn. Mol. Pathol. 1:98. Two hours after infection, cells were washed with medium and cultured in RPMI supplemented with 10% human serum. In experiments where PCR analysis was performed, virus was pretreated with RNAse-free DNAse (Boehinger-Mannheim) for 2 h at room temperature and then filtered though a 0.2 μm pore nitrocellulose filter prior to infection.
For the reverse transcriptase (RT) assay, 10 μl of culture supernatant was added to 40 μl of reaction mixture (final composition was 50 mM Tris-HCl, pH 7.8; 20 MM KCl; 5 MM MgCl2; 1 mM DTT; 0.1% Triton X-100; 0.2 OD/ml polyA; 0.2 OD/ml oligo(dT)12-18; and 40 μCi/ml ^3H-dTTP (76 Ci/mmol, DuPont) and incubated 2 hr at 37° C. 5 μl of the reaction mixture was then spotted onto the DE 81 (Whatman) paper. Paper was air dried and washed 5 times with 5% Na2HPO4, followed by rinsing with distilled water. After air drying, paper was put on a Flexi Filter plate (Packard), covered with scintillation fluid and counted in a Top Count Microplate Counter (Packard). Results are expressed as counts per minute in 1 ml of supernatant (cpm/ml).
In view of these premises, the effects on HIV-1 replication in human monocyte cultures of the various concentrations of AZT, alone or in combination with 100 nM Compound No. 2, were tested using the protocols of Sections 6.2.1 and 6.2.2. Drugs were added to the monocyte cultures together with HIV-1 at about 10^5 TCID/ml. The concentration of drugs was maintained on refeeding. HIV-1 replication was assessed by assay of the supernatant for reverse transcriptase activity. The results are expressed as mean ± std. dev. (cpm×10^−3) in Table V.

SMILES	visible signs of toxicity [1]	LD50 ± standard deviation ([1]; listed as CNI-H0294) [mg/kg]	LD50 ([1]; mouse, in vivo, ip, read-out: LD50 ± standard deviation) [mg/kg]	IC50 (HIV-1ADA) [nM]	CNI-H0294 immunoprecipitable with RT [2] [nmol]	radioactivity immunoprecipitable with RT ([2]; specific activity 50,000 cpm/nmol)	block of nuclear import of BSA with conjugated NLS peptides [3]	inhibition of binding of karyopherin α to purified recombinant MA [4]	inhibition of reverse transcription of HIV-1 in infected cells (HIV-1 [5])	reverse transcriptase activity in supernatant (HIV-1 [6]; day-7) [cpm×10^−3]	reverse transcriptase activity in supernatant (HIV-1 [6]; day-11) [cpm×10^−3]	reduction in RT activity (HIV-1 [6]; day-11, 100 nM Compound No. 2 alone) [%]
CC(=O)c1cc(Nc2cc(C)[n+](C)c(N)n2)cc(C(C)=O)c1 [CNI-0294, 2-Amino-4-(3,5-diacetylphenyl)amino-1,6-dimethylpyrimidinium chloride]	no overt signs of toxicity detectable at doses approaching the LD50	590	588	50	~0.34	about 17,000 cpm	did not block	did not inhibit	did not significantly inhibit	–	–	–
CC(=O)c1cc(Nc2cc(C)[n+](C)c(N)n2)cc(C(C)=O)c1.[I-] [Compound No. 2, 2-amino-4-(3,5-diacetylphenyl)amino-1,6-dimethylpyrimidinium iodide]	–	–	–	–	–	–	–	–	–	0.37 ± 0.07	0.72 ± 0.30	~60

— patent publication US6649797B2, “Compounds and methods of use to treat infectious diseases” (The Picower Institute for Medical Research, priority 1996, dated 2003)
